According to US8101782B2, “Compounds that inhibit cholinesterase” (priority 2007, dated 2012):
Like-named read-outs stand apart in the source and are kept apart here.

Legend:
[1] = tested on: male CD IGS (Sprague Dawley derived) rats; assay: Measurement of hypothermia (rectal temperature); format: in vivo; settings: Rattus norvegicus, sc, read-out: Hypothermia MED
Procedure: The induction of hypothermia was determined for compounds of the invention according to the methods described in Freedman, et al., European Journal of Pharmacology, 187 (1990), 193-199, which is incorporated by reference herein. Dose range and time course for cholinergic effects of the compounds of the invention was also determined. […]
(§1) The dose range and time course for cholinergic effects of the compounds of the invention was determined as described below.
(§2) Subjects: Two hundred eight male CD IGS (Sprague Dawley derived) rats were received at 126-150 grams and maintained four per cage on a regular light/dark cycle (lights on 0600-1800) with ad libitum food and water for about 1 week before commencement of experimentation. Apparatus: Injection was done with a 25-gauge ⅝-inch needle on a 1-mL tuberculin syringe. Observation was done in a 5½-×10-inch polycarbonate rat housing cage. Temperature was taken with a rat rectal probe on a Model BAT-12 electronic thermometer. Compound Preparation: Test compounds were dissolved for example, in 0.9% saline. Concentrations for lower doses were prepared by taking aliquots from higher concentrations and diluting. Injection volumes were 1 mL/kg, if the test compound was sufficiently soluble. If less soluble, maximum injection volume were 5 mL/kg. Route of administration was s.c. As sample protocol is as follows: Treatment Groups included (N=3, with 6 for Saline)
(§3) Procedure: The rats were brought to the test room in the home cage. Baseline temperature were be taken just before injection. After injection s.c., the rat was placed in the observation cage. At 0.5, 1, 2, and 4 hours after injection, it was observed briefly for gross signs; salivation was scored as absent, clearly present, or copious; and rectal temperature was taken. In observation for gross signs, special attention was paid to fasciculation (muscle twitch), tremor/ataxia, and abnormal gait.

[2] = molecular target: T1, human recombinant acetylcholinesterase (Homo sapiens, UniProt P22303); assay: Inhibition of acetylcholinesterase in vitro (modified Ellman colorimetric method, Dixon plot); format: biochemical; settings: human recombinant AChE, 25° C., 30 minutes preincubation, 0.3 mM acetylthiocholine, pH 8
T1 construct: purchased Sigma Chemical Co (St. Louis, Mo.) C1682
T1 sequence (P22303 32-614): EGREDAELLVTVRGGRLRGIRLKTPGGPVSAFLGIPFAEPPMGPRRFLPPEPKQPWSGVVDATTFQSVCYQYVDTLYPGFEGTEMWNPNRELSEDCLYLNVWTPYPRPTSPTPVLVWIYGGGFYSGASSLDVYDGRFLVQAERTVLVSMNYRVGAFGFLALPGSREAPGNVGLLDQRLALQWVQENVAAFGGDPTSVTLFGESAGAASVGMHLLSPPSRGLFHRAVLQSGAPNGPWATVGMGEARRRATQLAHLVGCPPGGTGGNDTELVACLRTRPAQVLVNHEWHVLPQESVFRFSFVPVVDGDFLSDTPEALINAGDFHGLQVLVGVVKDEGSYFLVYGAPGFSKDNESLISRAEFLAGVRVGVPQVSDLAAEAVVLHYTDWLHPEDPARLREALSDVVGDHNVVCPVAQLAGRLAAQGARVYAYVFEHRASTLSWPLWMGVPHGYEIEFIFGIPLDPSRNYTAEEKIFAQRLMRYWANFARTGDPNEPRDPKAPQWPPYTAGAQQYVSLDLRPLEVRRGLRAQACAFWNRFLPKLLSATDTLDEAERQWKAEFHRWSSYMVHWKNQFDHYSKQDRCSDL

[3] = molecular target: AChE (Homo sapiens, UniProt P22303); assay: In vitro screening assay, AChE inhibition (spectrophotometric quantitation of thiocholine); format: biochemical; settings: 700 μM acetylthiocholine, pH 7.4, 25° C.; for AChEI (%) 1 μM: 1 μM compound; for AChEI (%) 10 μM: 10 μM compound
Sequence of AChE (P22303 32-614): as above

[4] = molecular target: BuChE (Homo sapiens, UniProt P06276); assay: In vitro screening assay, BuChE inhibition; format: biochemical; settings: for BuChEI (%) 1 μM: 1 μM compound; for BuChEI (%) 10 μM: 10 μM compound
Sequence of BuChE (P06276 29-602): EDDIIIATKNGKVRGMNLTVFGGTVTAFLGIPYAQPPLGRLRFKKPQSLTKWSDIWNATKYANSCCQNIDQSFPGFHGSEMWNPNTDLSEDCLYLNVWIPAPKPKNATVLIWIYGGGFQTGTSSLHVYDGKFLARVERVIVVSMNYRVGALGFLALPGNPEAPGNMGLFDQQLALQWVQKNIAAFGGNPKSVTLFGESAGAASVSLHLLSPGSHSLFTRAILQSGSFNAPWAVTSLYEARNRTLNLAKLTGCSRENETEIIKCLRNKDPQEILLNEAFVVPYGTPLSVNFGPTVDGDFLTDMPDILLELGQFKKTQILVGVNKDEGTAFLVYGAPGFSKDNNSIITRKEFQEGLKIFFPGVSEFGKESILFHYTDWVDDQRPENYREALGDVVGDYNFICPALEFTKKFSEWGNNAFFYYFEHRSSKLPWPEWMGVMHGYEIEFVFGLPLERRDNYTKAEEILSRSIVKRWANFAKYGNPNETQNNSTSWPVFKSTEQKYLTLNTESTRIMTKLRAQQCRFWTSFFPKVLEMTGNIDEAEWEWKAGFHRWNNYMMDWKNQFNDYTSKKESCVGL
Source text: An in vitro screening assay with compounds of the invention was completed according to the methods described in Ellman G L et al., Biochem Pharmacol., 7:88-95 (1961) and in Nadarajah B, J. Anal. Toxicol., 16:192-193 (1992), both of which are herein incorporated by reference in their entireties.
An in vitro screening assay with compounds of the invention was completed according to the methods described in Ellman G L et al., Biochem Pharmacol., 7:88-95 (1961) and in Nadarajah B, J. Anal. Toxicol., 16:192-193 (1992), both of which are herein incorporated by reference in their entireties. The assay method was completed according to the following: […]

[5] = tested on: male CD IGS (Sprague Dawley derived) rats; assay: Determination of the dose range and time course for cholinergic effects (gross signs, salivation); settings: s.c., doses 1, 3, 10, 30 and 100 mg/kg; observed up to 4 hours
Procedure: The induction of hypothermia was determined for compounds of the invention according to the methods described in Freedman, et al., European Journal of Pharmacology, 187 (1990), 193-199, which is incorporated by reference herein. Dose range and time course for cholinergic effects of the compounds of the invention was also determined.
as §1, §2, §3

[6] = minimum effective dose for hypothermia, s.c., temperature at 0.5, 1, 2 and 4 hours after injection

Structure (SMILES)	minimal effective dose [1, 6]	IC50 [2]	AChEI (%) 10 μM [3]	BuChEI (%) 10 μM [4]	other results
CCN(C)C(=O)Oc1cccc([C@H](C)N(C)C)c1 [Compound 1, S-rivastigmine, reference compound]	≤ 0.1 mg/kg	–	–	–	–
C[C@@H](c1cccc(OC(=O)N[C@@H]2C[C@H]2c2ccccc2)c1)N(C)C [Compound 2, S-rivastigmine-tranylcypromine]	10 mg/kg	0.2 µM	97%	67%	AChEI (%) 1 μM [3]: 84%; BuChEI (%) 1 μM [4]: 23%; Max Tolerated Dose [5]: 30
C[C@@H](c1cccc(OC(=O)N2CCN(C3=Nc4ccccc4Oc4ccc(Cl)cc43)CC2)c1)N(C)C [Compound 3, S-rivastigmine-amoxapine]	10 mg/kg	–	–	–	–
C[C@@H](c1cccc(OC(=O)N(C)CCCN2c3ccccc3CCc3ccccc32)c1)N(C)C [Compound 4, S-rivastigmine-desipramine]	3 mg/kg	–	–	–	–
C[C@@H](c1cccc(OC(=O)N(C)CCC=C2c3ccccc3CCc3ccccc32)c1)N(C)C [Compound 5, S-rivastigmine-nortriptyline]	≤ 1 mg/kg	–	–	–	Max Tolerated Dose [5]: ≧100
C[C@@H](c1cccc(OC(=O)N(C)CCCC2c3ccccc3C=Cc3ccccc32)c1)N(C)C [Compound 6, S-rivastigmine-protriptyline]	100 mg/kg	–	–	–	–
C[C@@H](c1cccc(OC(=O)N(C)CCC(Oc2ccc(C(F)(F)F)cc2)c2ccccc2)c1)N(C)C (stereo partly shown) [Compound 7, S-rivastigmine-fluoxetine]	3 mg/kg	–	–	–	–
C[C@@H](c1cccc(OC(=O)N(C)CCc2ccccn2)c1)N(C)C [Compound 11, S-rivastigmine-betahistine]	–	13.3 µM	47%	100%	BuChEI (%) 1 μM [4]: 45%; minimal effective dose [1]: < 1 mg/kg; Max Tolerated Dose [5]: 30
CCOC(=O)C1=C(COCCNC(=O)Oc2cccc([C@H](C)N(C)C)c2)NC(C)=C(C(=O)OC)C1c1ccccc1Cl (stereo partly shown) [Compound 12, S-rivastigmine-amlodipine]	–	3.7 µM	79%	6%	AChEI (%) 1 μM [3]: 20%
CC(CC1CCCCC1)N(C)C(=O)Oc1cccc([C@H](C)N(C)C)c1 (stereo partly shown) [Compound 13, S-rivastigmine-propylhexedrine]	10 mg/kg	–	99%	100%	AChEI (%) 1 μM [3]: 62%; BuChEI (%) 1 μM [4]: 37%
CC(NC(=O)Oc1cccc([C@H](C)N(C)C)c1)C12CC3CC(CC(C3)C1)C2 (stereo partly shown) [Compound 14, S-rivastigmine-rimantadine]	–	4.5 µM	77%	13%	AChEI (%) 1 μM [3]: 28%
C[C@@H](c1cccc(OC(=O)N2CCC(=C3c4ccc(Cl)cc4CCc4cccnc43)CC2)c1)N(C)C [Compound 15, S-rivastigmine-desloratidine]	–	12.5 µM	36%	6%	minimal effective dose [1]: 3 mg/kg; Max Tolerated Dose [5]: ≧100
C[C@@H](c1cccc(OC(=O)NC23CC4CC(CC(C4)C2)C3)c1)N(C)C [Compound 16, S-riva- amantadine]	–	72.1 µM	–	–	–
C[C@@H](c1cccc(OC(=O)N[C@@]23CC4C[C@@](C)(C[C@@](C)(C4)C2)C3)c1)N(C)C [Compound 17, S-riva memantine]	–	5.8 µM	–	–	–
CC(C)C[C@@H](CNC(=O)Oc1cccc([C@H](C)N(C)C)c1)CC(=O)O [Compound 18, S-riva pregabalin]	–	24.9 µM	–	–	–
C[C@@H](c1cccc(OC(=O)NCC(CC(=O)O)c2ccc(Cl)cc2)c1)N(C)C (stereo partly shown) [Compound 19, S-riva baclofen]	–	16.9 µM	–	–	–
C[C@@H](c1cccc(OC(=O)N2CCN(c3cc4c(cc3F)c(=O)c(C(=O)O)cn4C3CC3)CC2)c1)N(C)C [Compound 20, S-riva ciprofloxacin]	–	53.6 µM	–	–	–
